From ChEMBL document CHEMBL1201862, “PubChem BioAssay data set” (2004)
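Five compound concentrations were applied to cells in 96-well plates for 48 hours; endpoints were derived by simple linear interpolation of the resulting dose-response curve. Here, GI50 denotes the concentration required for 50% inhibition of growth.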 Activity calls are given as the source filed them. Cut-off read from the data, not from the text of the source: active = GI50 up to about 1.1 µM and inactive = higher.

Tests used:
Test in all cases: NCI-60 cell line screen, 48 h
CAKI-1 = test system: CAKI-1
MCF7 = test system: MCF7
NCI-H23 = test system: NCI-H23
OVCAR-3 = test system: OVCAR-3
Malme-3M = test system: Malme-3M
A549 = test system: A549
UO-31 = test system: UO-31
NCI-H226 = test system: NCI-H226
CCRF-CEM = test system: CCRF-CEM
COLO 205 = test system: COLO 205
SF-295 = test system: SF-295
SK-MEL-2 = test system: SK-MEL-2
EKVX = test system: EKVX
ACHN = test system: ACHN
SK-MEL-28 = test system: SK-MEL-28
SK-OV-3 = test system: SK-OV-3
XF498 = test system: XF498
KM-20L2 = test system: KM-20L2
DMS-114 = test system: DMS-114
DMS-273 = test system: DMS-273

SMILES	GI50 (CAKI-1)	GI50 (MCF7)	GI50 (NCI-H23)	GI50 (OVCAR-3)	GI50 (Malme-3M)	GI50 (A549)	GI50 (UO-31)	GI50 (NCI-H226)	GI50 (CCRF-CEM)	GI50 (COLO 205)	GI50 (SF-295)	GI50 (SK-MEL-2)	GI50 (EKVX)	GI50 (ACHN)	GI50 (SK-MEL-28)	GI50 (SK-OV-3)	GI50 (XF498)	GI50 (KM-20L2)	GI50 (DMS-114)	GI50 (DMS-273)
O=S(=O)(c1ccccc1)C1CC(c2nc3ccccc3[nH]2)=NO1 (stereo not given)	97.7 µM (inactive)	53.3 µM (inactive)	> 100 µM (inactive)	89.9 µM (inactive)	8.26 µM (inactive)	> 100 µM (inactive)	> 100 µM (inactive)	> 100 µM (inactive)	21.8 µM (inactive)	37.3 µM (inactive)	> 100 µM (inactive)	> 100 µM (inactive)	84.9 µM (inactive)	> 100 µM (inactive)	> 100 µM (inactive)	> 100 µM (inactive)				
CC(C)=CC1CC(=O)C1(C)Sc1ccccc1 (stereo not given)	54.7 µM (inactive)		56.4 µM (inactive)	52.4 µM (inactive)	> 100 µM (inactive)	48.2 µM (inactive)	50.2 µM (inactive)	34.4 µM (inactive)	19.1 µM (inactive)	23.1 µM (inactive)	> 100 µM (inactive)	35.2 µM (inactive)	54.2 µM (inactive)	> 100 µM (inactive)	> 100 µM (inactive)	> 100 µM (inactive)	37.7 µM (inactive)	36.3 µM (inactive)	16.6 µM (inactive)	
OC1CCSc2ccccc21 (stereo not given)	> 100 µM (inactive)		> 100 µM (inactive)	> 100 µM (inactive)	> 100 µM (inactive)	> 100 µM (inactive)	> 100 µM (inactive)	> 100 µM (inactive)	> 100 µM (inactive)	> 100 µM (inactive)		> 100 µM (inactive)	> 100 µM (inactive)	> 100 µM (inactive)	> 100 µM (inactive)	> 100 µM (inactive)	> 100 µM (inactive)	> 100 µM (inactive)	> 100 µM (inactive)	> 100 µM (inactive)
Cc1ccc(C2=C(C#N)C(N)OC3=C2COc2ccccc23)cc1 (stereo not given)		> 100 µM (inactive)	43.5 µM (inactive)	17 µM (inactive)	22.8 µM (inactive)	31.4 µM (inactive)	14.3 µM (inactive)	> 100 µM (inactive)	22.9 µM (inactive)	> 100 µM (inactive)		26.6 µM (inactive)	7.19 µM (inactive)	35.2 µM (inactive)	31.6 µM (inactive)	25.9 µM (inactive)				
O=C(NC(Cc1ccc(I)cc1)C(=O)O)c1ccc(Cl)cc1 (stereo not given)	> 100 µM (inactive)	37.8 µM (inactive)	> 100 µM (inactive)	> 88.5 µM (inactive)	89.7 µM (inactive)	> 100 µM (inactive)	> 100 µM (inactive)	> 100 µM (inactive)	> 81.5 µM (inactive)	> 100 µM (inactive)	> 100 µM (inactive)	> 100 µM (inactive)	> 67.8 µM (inactive)		> 100 µM (inactive)	> 100 µM (inactive)	> 80.9 µM (inactive)	> 100 µM (inactive)		> 100 µM (inactive)
O=C(Nc1ccc(Cl)cc1)C(=O)C(C(=O)c1ccccc1-c1ccccc1)C1OC(=O)c2ccccc21 (stereo not given)	24 µM (inactive)		23.1 µM (inactive)			23.6 µM (inactive)	19.4 µM (inactive)	6.34 µM (inactive)	18.2 µM (inactive)	21.7 µM (inactive)	26.9 µM (inactive)	20.8 µM (inactive)	18.2 µM (inactive)	32.4 µM (inactive)	18.4 µM (inactive)	27.6 µM (inactive)	17.9 µM (inactive)	23.7 µM (inactive)	16.7 µM (inactive)	29 µM (inactive)
CC(=O)OC[C@H]1[C@@H]2C(CC[C@]13CO3)OC(=O)CC(C)[C@]2(C)CCc1ccoc1 (stereo not given in full)	> 100 µM (inactive)	> 100 µM (inactive)	> 100 µM (inactive)	> 100 µM (inactive)	> 100 µM (inactive)	> 100 µM (inactive)	> 100 µM (inactive)	> 100 µM (inactive)	> 100 µM (inactive)	> 100 µM (inactive)	> 100 µM (inactive)		> 100 µM (inactive)	> 100 µM (inactive)	> 100 µM (inactive)	> 100 µM (inactive)				
COc1cc(O)c2c(c1)C(=O)c1cc3c(c(O)c1C2=O)C(OC1OC(C)C(O)C(O)C1OC)C(OC)C(C)(O)C3=O (stereo not given)		2.54 µM (inactive)	2.06 µM (inactive)	0.439 µM (active)	0.893 µM (active)	3.71 µM (inactive)	2.09 µM (inactive)	3.48 µM (inactive)		0.76 µM (active)	1.82 µM (inactive)	3.65 µM (inactive)	2.43 µM (inactive)			3.2 µM (inactive)	3.95 µM (inactive)	1.1 µM (active)	1.61 µM (inactive)	0.644 µM (active)
O=C(N/C=C1\C(=O)Oc2ccccc2C1=O)NC1CCCCC1			69 µM (inactive)			> 100 µM (inactive)	21.3 µM (inactive)	41.1 µM (inactive)		> 100 µM (inactive)		24.2 µM (inactive)	> 100 µM (inactive)	30.5 µM (inactive)	46.7 µM (inactive)		21.4 µM (inactive)	> 100 µM (inactive)	45.3 µM (inactive)	> 100 µM (inactive)
Cc1ccc(C)c(NC(=O)C(=O)C(C(=O)c2ccc3ccccc3c2)C2OC(=O)c3ccccc32)c1 (stereo not given)	20 µM (inactive)		15.6 µM (inactive)			18.2 µM (inactive)	16.5 µM (inactive)	2.44 µM (inactive)	10.9 µM (inactive)	15.8 µM (inactive)	10.4 µM (inactive)	13.6 µM (inactive)	16.5 µM (inactive)	26.5 µM (inactive)	12.4 µM (inactive)	14.3 µM (inactive)	14.5 µM (inactive)	21.3 µM (inactive)	7.21 µM (inactive)	3.87 µM (inactive)
O=S(=O)(O)c1ccc(/N=N\c2ccc(/N=N\c3ccc(/C=C/c4ccc(/N=[N+](/[O-])c5ccc(/C=C/c6ccc(/N=N/c7ccc(/N=N\c8ccc(S(=O)(=O)O)cc8)cc7)cc6S(=O)(=O)O)c(S(=O)(=O)O)c5)cc4S(=O)(=O)O)c(S(=O)(=O)O)c3)cc2)cc1		> 100 µM (inactive)	> 100 µM (inactive)	> 100 µM (inactive)	> 100 µM (inactive)	> 100 µM (inactive)	> 100 µM (inactive)	> 67.8 µM (inactive)	> 100 µM (inactive)	> 100 µM (inactive)	> 100 µM (inactive)	> 100 µM (inactive)	> 100 µM (inactive)		> 100 µM (inactive)	> 100 µM (inactive)	> 100 µM (inactive)	> 100 µM (inactive)	> 100 µM (inactive)	> 100 µM (inactive)
CC(c1ccccc1)/[N+]([O-])=C/c1ccccc1 (stereo not given)			> 100 µM (inactive)	> 100 µM (inactive)		> 100 µM (inactive)	> 100 µM (inactive)		> 100 µM (inactive)	> 100 µM (inactive)	> 100 µM (inactive)		> 100 µM (inactive)	> 100 µM (inactive)	> 100 µM (inactive)	> 100 µM (inactive)	> 100 µM (inactive)	> 100 µM (inactive)	> 100 µM (inactive)	> 100 µM (inactive)
